# Source: the supplement of paper PMC10307832
# How the values were obtained:
# Experiment in all cases: relative viability (nuclei count vs DMSO), 5 days (fraction); higher = more cells survive
# NCI-H1355 = tested on: NCI-H1355
# In short: (§1)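 Nuclei were stained with Hoechst during a one-step fixation (final 0.05% Triton X-100, 1% formaldehyde, 1 ug/ml Hoechst) carried out 5 days after dosing, then counted on 4× images. The cells, lung cancer lines in 1536-well plates, had been dosed by pin tool the day after seeding with one drug alone or a fixed anchor-drug dose plus five library-drug doses (not always all listed) in √10 steps. Relative viability is the nuclei count in treated wells divided by that in vehicle wells, and each value is the median of duplicate plates.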
# NCI-H322M = tested on: NCI-H322M
# In short: as §1
# NCI-H1651 = tested on: NCI-H1651
# In short: as §1
# NCI-H460 = tested on: NCI-H460
# In short: as §1
# NCI-H441 = tested on: NCI-H441
# In short: as §1
# RERF-LC-KJ = tested on: RERF-LC-KJ
# In short: as §1
# NCI-H727 = tested on: NCI-H727
# In short: as §1
# NCI-H1563 = tested on: NCI-H1563
# In short: as §1
# NCI-H3122 = tested on: NCI-H3122
# In short: as §1
# NCI-H1792 = tested on: NCI-H1792
# In short: as §1
# NCI-H1755 = tested on: NCI-H1755
# In short: as §1
# NCI-H2170 = tested on: NCI-H2170
# In short: as §1
# NCI-H650 = tested on: NCI-H650
# In short: as §1
# NCI-H1915 = tested on: NCI-H1915
# In short: as §1
# NCI-H520 = tested on: NCI-H520
# In short: as §1
# NCI-H2347 = tested on: NCI-H2347
# In short: as §1
# LXF-289 = tested on: LXF-289
# In short: as §1
# LCLC-103H = tested on: LCLC-103H
# In short: as §1
# NCI-H661 = tested on: NCI-H661
# In short: as §1
# PC-14 = tested on: PC-14
# In short: as §1
# SK-MES-1 = tested on: SK-MES-1
# In short: as §1
# NCI-H596 = tested on: NCI-H596
# In short: as §1
structure (smiles),measurement,setting,value
CC(C)Oc1cc(Nc2nc(N[C@@H](C)c3ccc(F)cn3)ncc2Cl)n[nH]1 [AZ23] + CS(=O)(=O)N1CCN(Cc2cc3nc(-c4cccc5[nH]ncc45)nc(N4CCOCC4)c3s2)CC1 [Pictilisib] (partner 1 µM),relative viability,NCI-H1355; first compound 0.01 µM,0.367
same,relative viability,NCI-H1355; first compound 0.03162 µM,0.46
same,relative viability,NCI-H1355; first compound 0.3162 µM,0.401
same,relative viability,NCI-H322M; first compound 0.01 µM,0.477
same,relative viability,NCI-H322M; first compound 0.03162 µM,0.497
same,relative viability,NCI-H322M; first compound 0.3162 µM,0.561
same,relative viability,NCI-H1651; first compound 0.01 µM,0.443
same,relative viability,NCI-H1651; first compound 0.03162 µM,0.542
same,relative viability,NCI-H1651; first compound 0.3162 µM,0.665
same,relative viability,NCI-H460; first compound 0.01 µM,0.3
same,relative viability,NCI-H460; first compound 0.03162 µM,0.567
same,relative viability,NCI-H460; first compound 0.3162 µM,0.348
same,relative viability,NCI-H441; first compound 0.01 µM,0.658
same,relative viability,NCI-H441; first compound 0.03162 µM,0.601
same,relative viability,NCI-H441; first compound 0.3162 µM,0.457
same,relative viability,RERF-LC-KJ; first compound 0.01 µM,0.546
same,relative viability,RERF-LC-KJ; first compound 0.03162 µM,0.507
same,relative viability,RERF-LC-KJ; first compound 0.3162 µM,0.502
same,relative viability,NCI-H727; first compound 0.01 µM,0.268
same,relative viability,NCI-H727; first compound 0.03162 µM,0.422
same,relative viability,NCI-H727; first compound 0.3162 µM,0.329
same,relative viability,NCI-H1563; first compound 0.01 µM,0.682
same,relative viability,NCI-H1563; first compound 0.03162 µM,0.653
same,relative viability,NCI-H1563; first compound 0.3162 µM,0.674
same,relative viability,NCI-H3122; first compound 0.01 µM,0.658
same,relative viability,NCI-H3122; first compound 0.03162 µM,0.598
same,relative viability,NCI-H3122; first compound 0.3162 µM,0.579
same,relative viability,NCI-H1792; first compound 0.01 µM,0.248
same,relative viability,NCI-H1792; first compound 0.03162 µM,0.291
same,relative viability,NCI-H1792; first compound 0.3162 µM,0.302
same,relative viability,NCI-H1755; first compound 0.01 µM,0.41
same,relative viability,NCI-H1755; first compound 0.03162 µM,0.478
same,relative viability,NCI-H1755; first compound 0.3162 µM,0.464
same,relative viability,NCI-H2170; first compound 0.01 µM,0.288
same,relative viability,NCI-H2170; first compound 0.03162 µM,0.325
same,relative viability,NCI-H2170; first compound 0.3162 µM,0.304
same,relative viability,NCI-H650; first compound 0.01 µM,0.841
same,relative viability,NCI-H650; first compound 0.03162 µM,0.869
same,relative viability,NCI-H650; first compound 0.3162 µM,1.1
same,relative viability,NCI-H1915; first compound 0.01 µM,0.988
same,relative viability,NCI-H1915; first compound 0.03162 µM,0.979
same,relative viability,NCI-H1915; first compound 0.3162 µM,0.945
same,relative viability,NCI-H520; first compound 0.01 µM,0.327
same,relative viability,NCI-H520; first compound 0.03162 µM,0.309
same,relative viability,NCI-H520; first compound 0.3162 µM,0.304
same,relative viability,NCI-H2347; first compound 0.01 µM,0.525
same,relative viability,NCI-H2347; first compound 0.03162 µM,0.681
same,relative viability,NCI-H2347; first compound 0.3162 µM,0.543
same,relative viability,LXF-289; first compound 0.01 µM,0.969
same,relative viability,LXF-289; first compound 0.03162 µM,0.818
same,relative viability,LXF-289; first compound 0.3162 µM,0.788
same,relative viability,LCLC-103H; first compound 0.01 µM,0.571
same,relative viability,LCLC-103H; first compound 0.03162 µM,0.555
same,relative viability,LCLC-103H; first compound 0.3162 µM,0.533
same,relative viability,NCI-H661; first compound 0.01 µM,0.402
same,relative viability,NCI-H661; first compound 0.03162 µM,0.446
same,relative viability,NCI-H661; first compound 0.3162 µM,0.423
same,relative viability,PC-14; first compound 0.01 µM,0.757
same,relative viability,PC-14; first compound 0.03162 µM,0.689
same,relative viability,PC-14; first compound 0.3162 µM,0.739
same,relative viability,SK-MES-1; first compound 0.01 µM,0.329
same,relative viability,SK-MES-1; first compound 0.03162 µM,0.358
same,relative viability,SK-MES-1; first compound 0.3162 µM,0.387
same,relative viability,NCI-H596; first compound 0.01 µM,0.359
same,relative viability,NCI-H596; first compound 0.03162 µM,0.342
same,relative viability,NCI-H596; first compound 0.3162 µM,0.397
CC(C)Oc1cc(Nc2nc(N[C@@H](C)c3ccc(F)cn3)ncc2Cl)n[nH]1 [AZ23] + C[C@@H](Oc1cc(-c2cnn(C3CCNCC3)c2)cnc1N)c1c(Cl)ccc(F)c1Cl [Crizotinib] (partner 1 µM),relative viability,NCI-H1355; first compound 0.01 µM,1.19
same,relative viability,NCI-H1355; first compound 0.03162 µM,1.11
same,relative viability,NCI-H1355; first compound 0.3162 µM,1.09
same,relative viability,NCI-H322M; first compound 0.01 µM,1.08
same,relative viability,NCI-H322M; first compound 0.03162 µM,1.14
same,relative viability,NCI-H322M; first compound 0.3162 µM,0.939
same,relative viability,NCI-H1651; first compound 0.01 µM,0.94
same,relative viability,NCI-H1651; first compound 0.03162 µM,0.97
same,relative viability,NCI-H1651; first compound 0.3162 µM,0.875
same,relative viability,NCI-H460; first compound 0.01 µM,0.827
same,relative viability,NCI-H460; first compound 0.03162 µM,1.04
same,relative viability,NCI-H460; first compound 0.3162 µM,0.834
same,relative viability,NCI-H441; first compound 0.01 µM,1.15
same,relative viability,NCI-H441; first compound 0.03162 µM,0.914
same,relative viability,NCI-H441; first compound 0.3162 µM,0.774
same,relative viability,RERF-LC-KJ; first compound 0.01 µM,1
same,relative viability,RERF-LC-KJ; first compound 0.03162 µM,1
same,relative viability,RERF-LC-KJ; first compound 0.3162 µM,0.915
same,relative viability,NCI-H727; first compound 0.01 µM,1.01
same,relative viability,NCI-H727; first compound 0.03162 µM,1.14
same,relative viability,NCI-H727; first compound 0.3162 µM,0.648
same,relative viability,NCI-H1563; first compound 0.01 µM,0.837
same,relative viability,NCI-H1563; first compound 0.03162 µM,0.912
same,relative viability,NCI-H1563; first compound 0.3162 µM,0.865
same,relative viability,NCI-H3122; first compound 0.01 µM,0.28
same,relative viability,NCI-H3122; first compound 0.03162 µM,0.262
same,relative viability,NCI-H3122; first compound 0.3162 µM,0.305
same,relative viability,NCI-H1792; first compound 0.01 µM,1.47
same,relative viability,NCI-H1792; first compound 0.03162 µM,1.27
same,relative viability,NCI-H1792; first compound 0.3162 µM,1.01
same,relative viability,NCI-H1755; first compound 0.01 µM,1.1
same,relative viability,NCI-H1755; first compound 0.03162 µM,1.01
same,relative viability,NCI-H1755; first compound 0.3162 µM,0.964
same,relative viability,NCI-H2170; first compound 0.01 µM,1.67
same,relative viability,NCI-H2170; first compound 0.03162 µM,1.45
same,relative viability,NCI-H2170; first compound 0.3162 µM,1.42
same,relative viability,NCI-H650; first compound 0.01 µM,0.866
same,relative viability,NCI-H650; first compound 0.03162 µM,0.813
same,relative viability,NCI-H650; first compound 0.3162 µM,0.847
same,relative viability,NCI-H1915; first compound 0.01 µM,1.28
same,relative viability,NCI-H1915; first compound 0.03162 µM,0.936
same,relative viability,NCI-H1915; first compound 0.3162 µM,0.979
same,relative viability,NCI-H520; first compound 0.01 µM,0.869
same,relative viability,NCI-H520; first compound 0.03162 µM,0.864
same,relative viability,NCI-H520; first compound 0.3162 µM,0.732
same,relative viability,NCI-H2347; first compound 0.01 µM,0.736
same,relative viability,NCI-H2347; first compound 0.03162 µM,0.861
same,relative viability,NCI-H2347; first compound 0.3162 µM,0.654
same,relative viability,LXF-289; first compound 0.01 µM,0.862
same,relative viability,LXF-289; first compound 0.03162 µM,0.859
same,relative viability,LXF-289; first compound 0.3162 µM,0.79
same,relative viability,LCLC-103H; first compound 0.01 µM,1.13
same,relative viability,LCLC-103H; first compound 0.03162 µM,1.13
same,relative viability,LCLC-103H; first compound 0.3162 µM,1.13
same,relative viability,NCI-H661; first compound 0.01 µM,1.1
same,relative viability,NCI-H661; first compound 0.03162 µM,1.19
same,relative viability,NCI-H661; first compound 0.3162 µM,1.11
same,relative viability,PC-14; first compound 0.01 µM,0.896
same,relative viability,PC-14; first compound 0.03162 µM,1.21
same,relative viability,PC-14; first compound 0.3162 µM,0.89
same,relative viability,SK-MES-1; first compound 0.01 µM,1.02
same,relative viability,SK-MES-1; first compound 0.03162 µM,1.14
same,relative viability,SK-MES-1; first compound 0.3162 µM,0.938
same,relative viability,NCI-H596; first compound 0.01 µM,0.97
same,relative viability,NCI-H596; first compound 0.03162 µM,1.05
same,relative viability,NCI-H596; first compound 0.3162 µM,0.896
